The values below come from PubChem BioAssay (NCI).

Common to all, as to experiment: NCI tumour cell line growth inhibition, 48 h
Assay [1] relates to A498 renal.
The subject of assay [2] is A549 NSCLC.
Assay [3] concerns DU-145 prostate.
The subject of assay [4] is HS 578T breast.
Assay [5] has as its system IGROV1 ovarian.
The test system of assay [6] is MALME-3M melanoma.
For assay [7], the system named is NCI-H460 lung.
In assay [8] the test system is NCI/ADR-RES ovarian.
For assay [9], the system named is OVCAR-4 ovarian.
Assay [10] deals with OVCAR-5 ovarian.
The test system of assay [11] is SF-268 CNS.
The subject of assay [12] is SF-295 CNS.
Assay [13] deals with SK-MEL-28 melanoma.
For assay [14], the system named is SK-MEL-5 melanoma.
Assay [15] concerns SNB-19 CNS.

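Compound exposure: 48 hours, 5 concentrations, 96-well plates. GI50: concentration for 50% inhibition of growth. Definition used: TGI = concentration required for complete inhibition of growth.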

For the compound `CCNc1cc2c(cc1O)CC[C@@H]1[C@@H]2CC[C@]2(C)[C@@H](O)CC[C@@H]12`, the TGI in assay [1] worked out at 6.16 µM; in assay [2] it was 54.6 µM; in [3], 20.5 µM; in assay [4], 35 µM; in [5] it was 33.2 µM; in [6], 17.5 µM. Besides, the TGI in assay [7] turned out to be 13.7 µM; in assay [8], 20.9 µM; in [9], 21.5 µM; in assay [10] it was 34.7 µM; in [11] it was 37.9 µM; in assay [12] it was 13.3 µM. Also, the TGI was 24.5 µM in [13], 11.8 µM in [14] and over 46.1 µM in assay [15]. For the same compound, the GI50 in [3] is 3.84 µM.

For `Cc1ccc(/C=C2\CCC/C(=C\c3ccc(O)c(CN4CCCCC4)c3)C2=O)cc1`, the TGI in assay [1] is 13.9 µM; in assay [2], over 49.3 µM; in assay [3], 16.6 µM; in [4] it was 38.5 µM; in assay [5] it was 26.5 µM; in [6] it was 43.7 µM. The TGI in [7] amounted to 20 µM; in assay [8], 12 µM; in [9] it was 33 µM; in assay [10], 38.9 µM; in assay [11], 13 µM; in assay [12], 26 µM. The TGI in assay [13] is over 53.5 µM; in assay [14] it was 19.1 µM; in assay [15] it was 36.5 µM.

`Cc1cc(C)n(C2OC(CO)C(O)C(O)C2O)c(=S)c1C#N` (stereo unspecified): the TGI in assay [1], in [2], in assay [3], in assay [4], in assay [5] and in assay [6] was over 100 µM in each case. Further, the TGI in assay [7], in assay [8], in assay [9], in assay [10], in assay [11] and in assay [12] was over 100 µM throughout. Besides, the TGI in assay [13], in assay [14] and in assay [15] was over 100 µM in each case.

Take `O=C1N[C@@H](c2c[nH]c3cc(Br)ccc23)C(=O)N[C@H]1c1c[nH]c2cc(Br)ccc12`: the TGI in [1], in assay [2], in [3], in assay [4], in [5] and in assay [6] was over 100 µM each time. The TGI in assay [7], in [8], in [9], in [10], in [11] and in assay [12] was over 100 µM each time. In addition, the TGI in assay [13], in [14] and in assay [15] was over 100 µM each time.

`CNc1nc2n(CCO)c(-c3ccccc3)c(-c3ccccc3)nc-2c(=O)n1`: the TGI in [1], in assay [2], in [3], in [4], in assay [5] and in assay [6] was over 50 µM throughout. In addition, the TGI in assay [7], in assay [8], in [9], in assay [10], in assay [11] and in assay [12] was over 50 µM each time. Also, the TGI in assay [13], in assay [14] and in assay [15] was over 50 µM throughout.

Turning to `COc1ccc(C2=Nn3c(nnc(Cc4ccc(Cl)cc4)c3=O)SC2)cc1`, the TGI in [1], in assay [2], in [3], in [4], in [5] and in [6] was over 100 µM in each case. For the same compound, the TGI was over 100 µM in assay [7]; 53.7 µM in assay [8]; over 100 µM in assay [9]; over 100 µM in [10]; over 100 µM in assay [11]; over 100 µM in [12]. Besides, the TGI in assay [13], in [14] and in assay [15] was over 100 µM each time.

With `COc1cc(OC)c2c(=O)c(OC)c(-c3ccc4c(c3)OCO4)oc2c1`, the TGI was 57.1 µM in [1]; over 100 µM in [2]; over 100 µM in assay [3]; 97.6 µM in [4]; over 100 µM in [5]; over 100 µM in assay [6]. For the same compound, the TGI in assay [7] is over 100 µM; in assay [8], over 100 µM; in assay [9], over 100 µM; in assay [10] it was over 100 µM; in [11] it was 66.6 µM; in assay [12] it was 61.7 µM. In addition, the figures for the TGI in [13], in assay [14] and in assay [15] were over 100 µM, over 100 µM and 62.7 µM, respectively.

Turning to `CCn1c2ccccc2n2c(=O)c3c(c(C#N)c12)CCCC3`, the TGI in [1], in [2], in assay [3], in assay [4], in assay [5] and in [6] was over 100 µM each time. The TGI in [7], in assay [8], in assay [9], in assay [10], in assay [11] and in assay [12] was over 100 µM each time. Besides, the TGI in assay [13], in assay [14] and in assay [15] was over 100 µM in each case.

`Cc1ccc(NC(=S)N/N=C(/c2ccccc2)c2ccccn2)cc1`: the TGI in assay [1] came out at 11.2 µM; in [2], 15.7 µM; in assay [3] it was 18.8 µM; in [4] it was 81.8 µM; in [5], 18.9 µM; in assay [6], 9.23 µM. Further, the TGI was 7.05 µM in [7]; over 80.2 µM in assay [8]; 16.6 µM in assay [9]; 2.07 µM in [10]; 1.32 µM in assay [11]; 12.7 µM in assay [12]. For the same compound, the TGI in [13] was 2.32 µM; in [14], 5.08 µM; in assay [15] it was 22.2 µM.

As for `COC1(OC)CC(CO)(CNc2nc(N)nc(Cl)c2/C=N\O)C1`, the TGI in [1] was 98.5 µM; in [2], over 100 µM; in assay [3] it was over 100 µM; in assay [4], over 100 µM; in assay [5], over 100 µM; in assay [6], over 100 µM. Also, the TGI in assay [7], in assay [8], in assay [9], in assay [10], in [11] and in assay [12] was over 100 µM throughout. In addition, the TGI in [13], in [14] and in [15] was over 100 µM throughout.

Take `C=C1CC[C@H](O)C(C)(C)[C@@H]1CC/C(C)=C/CC/C=C(\C)CC/C=C(\C)CCC=C(C)C`: the TGI in [1], in assay [2], in assay [3], in assay [4], in assay [5] and in [6] was over 100 µM in each case. For the same compound, the TGI in assay [7], in [8], in assay [9], in assay [10], in [11] and in assay [12] was over 100 µM each time. In addition, the TGI in [13], in [14] and in assay [15] was over 100 µM in each case.

As for `O=c1[nH]c(Nc2nc3ccccc3[nH]2)nc2c1CCC2`, the TGI in assay [1] is over 100 µM; in assay [2], over 100 µM; in assay [3] it was over 100 µM; in assay [4] it was 63.5 µM; in [5], over 100 µM; in assay [6], over 100 µM. Also, the TGI in assay [7], in assay [8], in [9], in [10], in [11] and in assay [12] was over 100 µM throughout. Besides, the TGI in assay [13], in assay [14] and in assay [15] was over 100 µM each time.

Regarding `NC(N)=N/N=C/c1c(-c2cccc([N+](=O)[O-])c2)nc2n1CCS2`, the TGI in assay [1] turned out to be 32.9 µM; in assay [2] it was 41 µM; in [3] it was 36.4 µM; in assay [4] it was 32.1 µM; in [5] it was 30.9 µM; in assay [6], 38.1 µM. For the same compound, the TGI in assay [7] is 53.5 µM; in assay [8] it was over 100 µM; in assay [9] it was 29.8 µM; in assay [10] it was over 100 µM; in [11], 46.6 µM; in assay [12] it was 54.6 µM. In addition, the TGI in assay [13] was determined as 41.5 µM; in assay [14], 32.5 µM; in assay [15] it was 32.1 µM.

In the case of `CCOC(=O)C1(C(=O)OCC)C[C@H](C)[C@](C)(O)C1`, the TGI in [1], in assay [2], in [3], in assay [4], in assay [5] and in [6] was over 100 µM in each case. The TGI in assay [7], in assay [8], in [9], in assay [10], in [11] and in [12] was over 100 µM in each case. The TGI in assay [13], in assay [14] and in [15] was over 100 µM throughout.

In the case of `O=C1C=CC=C/C1=C1\N=C(c2ccccc2OCC(=O)c2ccc(Br)cc2)SS1`, the TGI is over 100 µM in assay [1]; over 100 µM in assay [2]; over 100 µM in [3]; 76.2 µM in assay [4]; 71.3 µM in assay [5]; over 100 µM in [6]. For the same compound, the TGI in assay [7], in assay [8], in assay [9], in assay [10], in assay [11] and in [12] was over 100 µM in each case. Moreover, the TGI in assay [13], in assay [14] and in assay [15] was over 100 µM throughout.

For the compound `CC(C)(C)C1=CC(=C(c2ccc(-c3c4nc(c(-c5ccc(C(=C6C=C(C(C)(C)C)C(=O)C(C(C)(C)C)=C6)c6cc(C(C)(C)C)c(O)c(C(C)(C)C)c6)cc5)c5ccc([nH]5)c(-c5ccc(C(=C6C=C(C(C)(C)C)C(=O)C(C(C)(C)C)=C6)c6cc(C(C)(C)C)c(O)c(C(C)(C)C)c6)cc5)c5nc(c(-c6ccc(C(=C7C=C(C(C)(C)C)C(=O)C(C(C)(C)C)=C7)c7cc(C(C)(C)C)c(O)c(C(C)(C)C)c7)cc6)c6ccc3[nH]6)C=C5)C=C4)cc2)c2cc(C(C)(C)C)c(O)c(C(C)(C)C)c2)C=C(C(C)(C)C)C1=O`, the TGI in [1], in assay [2], in assay [3], in assay [4], in [5] and in [6] was over 100 µM each time. Besides, the TGI in assay [7], in assay [8], in [9], in assay [10], in [11] and in assay [12] was over 100 µM in each case. Further, the TGI in assay [13], in assay [14] and in assay [15] was over 100 µM in each case.

Consider `Cc1ccccc1N=Nc1ccc(N/N=C2/CCCNC2=O)c(C)c1`, for which the TGI in [1], in [2], in assay [3], in assay [4], in assay [5] and in assay [6] was over 100 µM throughout. For the same compound, the TGI in assay [7], in assay [8], in [9], in assay [10], in assay [11] and in assay [12] was over 100 µM each time. For the same compound, the TGI in assay [13], in assay [14] and in assay [15] was over 100 µM each time.
